The test system of the experiment is CEM cells HIV-1 protection, formazan growth assay. Put plainly: NCI AIDS Antiviral Assay. Conditions: for IC50: measured here: growth of uninfected CEM cells. Put shortly:
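Category rules: moderately active means at least 50% protection on retest, and confirmed active means 100% protection reproducibly. The underlying data came from a formazan growth assay in HIV-1-infected CEM cells.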

Consider 69 molecules from PubChem BioAssay AID179 (DTP/NCI, 2004).

Values joined by “and” are separate entries in the source; they are usually repeats but may differ in a detail not shown here. Equal values may be shown once. Active and inactive are the calls of the source.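 Rule for the calls: active = compounds giving half or more protection of infected cells from virus-caused growth loss, again on retest; inactive = the rest.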 Where a SMILES comes first, the peptide text is derived from it.

For `O=C1OCc2nc3c(c(-c4ccccc4C(F)(F)F)c21)C(=O)OC3`, the outcome was inactive.

Turning to `CCCCOC1NC(=O)NC(=O)C1(F)C(=O)OCC` (centres undefined), the EC50 is over 200 µM and the IC50 turned out to be 6.61 µM.

Turning to `NNC(=O)CCC(=O)NC1C2CC3CC(C2)CC1C3` (centres undefined), the EC50 was over 676 µM and the IC50 is over 676 µM.

In the case of `NC(=O)C(=CNC(=S)Nc1cccc(C(F)(F)F)c1)C(N)=O`, the EC50 was over 200 µM and the IC50 was over 200 µM.

Consider `CCOC(=O)C1C(c2ccc3c(c2)OCO3)c2c([nH][nH]c2=O)CC1(O)OCC` (centres undefined), for which the EC50 was over 200 µM and the IC50 was over 200 µM.

Regarding `O=C1CCCC2CCCCN12` (centres undefined), the outcome was inactive.

`Cc1nn(C(=O)c2ccncc2)c2c1C(c1ccccc1)SC(N)=N2` (centres undefined): the EC50 was 28.2 µM and the IC50 is over 100 µM.

On to `CSc1nc(N)cc(C(F)(F)F)n1`, for which the EC50 is over 200 µM and the IC50 is over 200 µM.

As to `CCOC(=O)CSc1c([N+](=O)[O-])ncn1C`, the EC50 was over 1020 µM and the IC50 was 170 µM.

Take `CCC(=O)OCNC(=O)NNC(=O)CCCC(=O)NNC(=O)NCOC(=O)CC`: the EC50 was over 200 µM and the IC50 was over 200 µM.

For `CC(C)=CC(=O)C/C(=N\NC(N)=S)C(=O)Nc1ccc(Cl)cc1`, the EC50 is over 37.2 µM and the IC50 was over 37.2 µM.

In the case of `COc1ccc(N=Nc2c(-c3ccccc3)nn(C(=O)CC(=O)Nc3ccc(OC)cc3)c2-c2ccccc2)cc1`, the EC50 was over 25.1 µM and the IC50 was over 25.1 µM.

For `CC1(C)O[C@@H](CP(c2cccc3ccccc23)c2cccc3ccccc23)[C@H](CP(c2cccc3ccccc23)c2cccc3ccccc23)O1`, the EC50 is over 200 µM and the IC50 was over 200 µM.

On to `Cc1c/c(=N/NC(=O)c2ccncc2)n2nc(N)sc2n1`, for which the EC50 was over 200 µM and the IC50 was over 200 µM.

With `CCOC(=O)C1(C#N)C(C#N)(C#N)C12CCCCC2` (centres undefined) (tested in a mixture with another compound), the EC50 is over 200 µM and the IC50 was 6.03 µM.

Consider `CCOC(=O)C(C)(C)Oc1ccc(Cl)cc1`, for which the EC50 is over 200 µM and the IC50 was over 200 µM.

Regarding `CC(C)N(C(=O)C12C3C4C1C1C2C3C41C(=O)C(C)(C)C)C(C)C` (centres undefined), the EC50 is over 158 µM and the IC50 came out at 138 µM.

Take `CCCCCCCCCCCCOCCOCCOCCOCCOCCOCC(=O)NC(Cc1ccccc1)C(=O)Oc1ccc([N+](=O)[O-])cc1` (centres undefined): the EC50 is over 200 µM and the IC50 turned out to be 17.8 µM.

Turning to `CCCCCC=C(c1cc(Br)c(OC)c(C(=O)OC)c1)c1cc(Br)c(OC)c(C(=O)OC)c1`, the EC50 was 26.9 µM and the IC50 worked out at 87.1 µM.

In the case of `Cc1cc(NS(=O)(=O)c2ccc(NC(=O)c3cccc4c(=O)c5ccccc5[nH]c34)cc2)no1`, the result was inactive.

Regarding `CC(Oc1ccccc1)C(=O)NN` (centres undefined), the EC50 is over 200 µM and the IC50 was over 200 µM.

In the case of `N#C/C(=C\c1cc(Cl)cc(Cl)c1O)c1ccc([N+](=O)[O-])cc1`, the EC50 is over 100 µM and the IC50 came to 14.1 µM.

`O=C1CSC(=S)N1Cc1ccncc1`: the EC50 is over 200 µM and the IC50 worked out at 4.27 µM.

`O=C(Cc1ccccc1[N+](=O)[O-])C(CO)c1ccccc1[N+](=O)[O-]` (centres undefined): the EC50 is over 110 µM and the IC50 was over 110 µM.

As for `CC(=O)OCC1C(=O)OCC1C(=O)N1Cc2cc3ccccc3nc2C1` (centres undefined), the EC50 was over 20 µM and the IC50 was 0.331 µM.

With `O=P(NC12CC3CC(CC(C3)C1)C2)(N1CC1)N1CC1`, the outcome was inactive.

On to `N#C/C(=C\NC(=S)Nc1cc(Cl)ccc1Cl)C(=O)c1ccc2ccccc2c1`, for which the EC50 is over 100 µM and the IC50 is over 100 µM.

`CC(=O)OC1CCC2(C)CC3C=CC2(OO3)C1(C)C` (centres undefined): the EC50 is over 200 µM and the IC50 was determined as 10.7 µM.

Turning to `N#CCc1nc2c(s1)C(=O)c1ccccc1C2=O`, the EC50 was over 7.94 µM and the IC50 is over 7.94 µM.

For the molecule `O=C(CC(C(=O)c1ccsc1)c1ccccc1)c1ccccc1` (centres undefined), the EC50 was over 200 µM and the IC50 was found to be 174 µM.

For `CSCCOC(=O)C(=[N+]=[N-])c1ccc([N+](=O)[O-])cc1`, the outcome was inactive.

As for `CC(=O)c1cc2c(cc1C(C)C)CC[C@H]1[C@](C)(C#N)CCC[C@]21C`, the EC50 was over 200 µM; the IC50 is 174 µM and 126 µM.

Consider `N#CC(C#N)=Cc1ccc(C#N)cc1`, for which the EC50 was over 141 µM and the IC50 turned out to be 20.4 µM.

Regarding `C=CC(=O)N1C/C(=C\c2ccc(N(C)C)cc2)C(=O)/C(=C/c2ccc(N(C)C)cc2)C1`, the EC50 was over 200 µM and the IC50 amounted to 60.3 µM.

For `Cc1ccc2c(c1)SCc1c-2[nH]c2ccccc12`, the result was inactive.

Turning to `COc1ccc(CNc2nc3ccccc3nc2C(=O)O)cc1`, the EC50 was over 200 µM and the IC50 was 34.7 µM.

As for `O=C(c1ccccc1)[C@H]1Nc2ccc(Cl)cc2[C@H]2OCCC[C@@H]12`, the EC50 was over 11.5 µM and the IC50 is over 11.5 µM.

Consider `CC1(C)CC23C(=O)N(c4ccccc4)C(=Nc4ccccc4)NC2=CC(C#N)=C(C#N)C3O1` (centres undefined), for which the EC50 was over 12 µM and the IC50 is over 12 µM.

Take `CCCCN(C(=O)c1ccccc1)C1CCC(=O)c2[nH]c3ccccc3c21` (centres undefined): the EC50 is over 200 µM and the IC50 was determined as 17 µM.

As to `Cc1ccc(S(=O)(=O)N/N=C(\c2nc3ccc([N+](=O)[O-])cc3[nH]c2=O)C(O)c2ccc([N+](=O)[O-])cc2)cc1` (centres undefined), the EC50 was over 126 µM and the IC50 is 112 µM.

For `CCN(CC)c1ccc(C(=C2C=CC(=[N+](CC)CC)C=C2)c2ccc(S(=O)(=O)O)cc2S(=O)(=O)[O-])cc1`, the outcome was inactive.

Take `NC(CSSCC(NC(=O)OCc1ccccc1)C(=O)O)C(=O)O` (centres undefined): the EC50 was over 200 µM and the IC50 was over 200 µM.

Regarding `Nc1nnnn1NC(=O)NCCCl`, the EC50 was over 200 µM and the IC50 is over 200 µM.

With `O=c1n(-c2ccccc2)c(=O)n2n1C1CCC2CC1`, the EC50 is over 200 µM and the IC50 was over 200 µM.

For `CCC(C)C(NC(=O)C(CCC(=O)O)NC(=O)C(CCCCN)NC(=O)C(CO)NC(=O)C(CC(C)C)NC(=O)C(Cc1ccc(O)cc1)NC(=O)C(C)N)C(=O)NC(C)C(=O)NC(CO)C(=O)NC(CC(=O)O)C(=O)O` (centres undefined) (H-AYLSKEIASD-OH; configuration not given here), the EC50 was over 29.5 µM, the outcome was inactive and the IC50 was over 29.5 µM.

As to `COc1cc(OC)c2nc3ccccc3c(NCCCN(C)C)c2c1[N+](=O)[O-]`, the EC50 is over 200 µM and the half-inhibitory concentration (IC50) was 20 µM.

For `COc1cc(C2C(C(=O)Nc3ccc([N+](=O)[O-])cc3)=C(C)NC(C)=C2C(=O)Nc2ccc([N+](=O)[O-])cc2)ccc1O`, the EC50 is over 9.33 µM and the IC50 is over 9.33 µM.

Turning to `CC(=O)OCc1c2ccccc2c(C)c2c1cc(F)c1ccccc12`, the result was inactive.

Take `CC(C)(O)C1CCC2(C)CC(=O)NCCN12` (centres undefined): the EC50 is over 398 µM and the IC50 is over 398 µM.

Turning to `CCc1cc2c(c3[nH]ccc13)[C@@H](C)C[C@H]2C`, the result was inactive.

In the case of `CN1C(=O)[C@@]2(C=CC3(CC2)OCCO3)c2ccccc21`, the EC50 was over 200 µM and the IC50 came to 35.5 µM.

With `O=C(O)CN1CCN(CC(=O)N2CCN(C(=O)OCc3ccccc3)CC2)CCN(CC(=O)O)CCN(CC(=O)N2CCN(C(=O)OCc3ccccc3)CC2)CC1`, the EC50 is over 200 µM and the IC50 was over 200 µM.

As to `Cc1nc2c(cc1C(=O)NN)c(=O)n(C)c(=O)n2C`, the EC50 is over 200 µM and the IC50 was over 200 µM.

`COc1cccc2c1C(=O)OC2c1cccc2ccccc12` (centres undefined): the outcome was inactive.

As for `NC(=O)C(N/N=C(/C(=O)c1ccccc1)c1ccccc1)c1ccccc1` (centres undefined), the EC50 is over 200 µM and the IC50 is 44.7 µM.

For `Cn1c2ccccc2c2nc3ccccc3c(Cl)c21`, the EC50 was over 200 µM and the IC50 came out at 135 µM.

Consider `O=C(Nc1ccc(S(=O)(=O)c2ccc(NC(=O)c3cc(S(=O)(=O)O)ccc3O)cc2)cc1)c1cc(S(=O)(=O)O)ccc1O` (tested in a mixture with another compound), for which the EC50 is 162 µM and the IC50 was over 200 µM.

Regarding `COc1ccc2nc(N/N=C/C(C)=N/Nc3cc(C)c4cc(OC)ccc4n3)cc(C)c2c1`, the EC50 was over 100 µM and the IC50 came out at 14.5 µM.

On to `S=c1nn[nH]n1-c1ccccc1.[Cd]`, for which the EC50 was over 42.7 µM and the IC50 turned out to be 32.4 µM.

`O=[N+]([O-])c1ccc(N/N=C2/CC3=C2CCCCCCCCCC3)c([N+](=O)[O-])c1`: the EC50 was over 100 µM and the IC50 is over 100 µM.

With `C/C(=N\Nc1ccc2ccccc2n1)c1ccccn1`, the EC50 was over 0.2 µM and the IC50 was found to be 0.11 µM.

For `O=C1C(=O)c2c(nc3ccccn23)-c2ccccc21`, the EC50 was over 2 µM and the IC50 stood at 0.427 µM.

For the molecule `COc1ccc2c(c1)OC[C@@H]1c3cc(O)c(OCc4ccccc4)cc3O[C@]21C`, the EC50 is over 200 µM and the IC50 came to 24 µM.

On to `OC(OCC(COC(O)C(Br)Br)(COC(O)C(Br)Br)COC(O)C(Br)Br)C(Br)Br` (centres undefined), for which the EC50 is over 100 µM and the IC50 was over 100 µM.

Turning to `C=C(CN(C)C)C(=O)c1ccc(C)cc1C`, the EC50 was over 200 µM and the IC50 came to 11.7 µM.

In the case of `Cc1ccccc1NC(=O)CC(=O)N1N=C(N(CCC#N)c2ccccc2Cl)CC1c1ccccc1` (centres undefined), the EC50 was over 263 µM and the IC50 was over 263 µM.

Consider `C/C(=N\NC(N)=O)c1ccc(Cl)cc1`, for which the EC50 was over 123 µM and the IC50 was over 123 µM.

With `CCCCN(CCCC)CC(C(=O)Nc1ccc([N+](=O)[O-])cc1[N+](=O)[O-])/C(C)=N\NC(=O)c1ccncc1` (centres undefined), the EC50 is over 56.2 µM and the IC50 is over 56.2 µM.

Regarding `C[C@@]12c3c4ccc(C=O)c3Oc3ccc(C=O)c(c31)Oc1c(C=O)ccc(c12)O4`, the EC50 is over 50.1 µM and the IC50 was over 50.1 µM.
